Assay results taken from patent US5514703A, “Benzothiophene compounds useful for inhibiting lipoxygenase” (Eli Lilly and Company, priority 1995, dated 1996).

Legend:
MCII cells = assay: MCII Mast Cell Toxicity Assay (XTT); format: cell-based, mouse; conditions: sensitized MCII cells, 4-12 hours, 37° C., read-out: MCII Mast Cell Toxicity IC50
Description: MCII Mast Cell Toxicity Assay
This toxicity assay is run in parallel with the MCII mast cell LTC4 assay and serves as an indicator of compound effects on the viability and metabolic activity of the MCII cells. This "toxicity" assay is based on the ability of dehydrogenase enzymes present in viable metabolically active cells to bioreduce the tetrazolium sale XTT yielding a colored, water soluble formazan product. (see, Roehm et al.) "An improved colorimetric assay for cell proliferation and viability utilizing the tetrazolium salt XTT. J. Immunol. Methods 142:257-65 (1991).
A duplicate polystyrene 96-well tissue culture plate (Costar) is set up with sensitized MCII cells, EM95 ascites, media and dilutions of the test compound as described above. The complete media is supplemented with concanavalin A induced culture supernatants from the mouse helper T cell clone D10.G4, as a source of mast cell growth factors.
Wells of the toxicity assay plate are pulsed with 25 μl XTT (Sigma) plus phenazine methosulfate (Aldrich) giving a final concentration of 0.2 mg/ml XTT and 25 μM phenazine methosulfate. The plates are incubated at 37° C. in 10% CO2 for 4-12 hours and then production of the XTT formazan product determined by measuring the optical density of the wells at a wavelength of 450 nm. The positive control on each plate is stimulated MCII cells with dimethyl sulfoxide vehicle alone and the negative control is the same reaction mixture without cells. The background negative control value is subtracted from experimental and positive control values and the data are reported as percent of positive control.

[1] = test system: TxB2 production in plasma-depleted blood; assay: Inhibition of Eicosanoid Production by Plasma-Depleted Blood: TxB2; format: cell-based; conditions: Homo sapiens, read-out: Plasma DPLTD Blood TxB2 IC50
Protocol: Inhibition of Eicosanoid Production by Plasma-Depleted Blood
Compounds are evaluated for their ability to inhibit production of leukotriene B4 (LTB4) and thromboxane B2 (TxB2) upon stimulation of human plasma-depleted blood with formyl-methionyl-leucyl-phenylalanine (FMLP) and thrombin. LTB4 is produced by neutrophils and TxB2 by platelets stimulated at their respective receptors with FMLP and thrombin. The assay is carried out in 1 ml deep well polypropylene 96-well plates (Beckman). For the test, ten ml of blood is collected in EDTA at a final concentration of 1.5 mg/ml. Then, 40 ml glucose phosphate buffer containing 0.1% gelatin is added and the suspension centrifuged at 900 g for 10 minutes at room temperature. The supernatant is discarded and the cells washed once with 50 ml buffer before resuspending them in 50 ml Krebs-Ringers-Henseleit Buffer containing 0.1% gelatin, 1 mM CaCl2, 1.1 mM MgCl2 (KRH buffer). Working solutions of test compounds are made by dissolving the material in DMSO at 10 mM and diluting with appropriate amounts of KRH buffer. An agonist solution is made containing 1 μM FMLP (sigma) and 10 units/ml of thrombin in KRH buffer (Enzyme Research Labs). […] The amount of LTB4 and TxB2 produced is determined by the use of a competitive enzyme immunoassay using commercial reagents from Cayman Chemical.

SMILES	CC50 (MCII cells) [µM]	IC50 [1] [µM]
Oc1ccc(-c2cc3ccc(O)cc3s2)cc1 [Compound B]	< 10	–
O=C(c1ccc(O)cc1)c1c(-c2ccc(O)cc2)sc2cc(O)ccc12 [Compound D]	–	> 9.8
O=C(c1ccc(-c2ccccc2)cc1)c1c(-c2ccc(O)cc2)sc2cc(O)ccc12 [Example 1, 6-hydroxyphenyl-2-(p-hydroxyphenyl)-(benzo(B)thien-3-yl)(p-phenyl)phenyl methanone]	> 10	–
O=C(c1cccc2ccccc12)c1c(-c2ccc(O)cc2)sc2cc(O)ccc12 [Example 2, 6-hydroxyphenyl-2-(p-hydroxyphenyl)-(benzo(B)thien-3-yl) (α-napthyl)methanone]	> 10	–
O=C(c1ccc2ccccc2c1)c1c(-c2ccc(O)cc2)sc2cc(O)ccc12 [Example 3, 6-hydroxyphenyl-2-(p-hydroxyphenyl)-(benzo(B)thien-3-yl)(β-napthyl)methanone]	> 10	–
